The values below come from patent US9469652B2, “ERK inhibitors” (Eli Lilly and Company, priority 2014, dated 2016).

Test [1] deals with T1, ERK1 (Homo sapiens, UniProt P27361).
T1 construct: purchased Invitrogen PR5254B
In words: ERK1 Kinase Assay (TR-FRET). It is filed as biochemical. The conditions noted are these: Abs_IC50, ATP 10 μM, GFP-ATF2 substrate; ±0.20, n=7. How it is done: The purpose of this assay is to measure the ability of compounds to inhibit ERK1 kinase activity. Perform the ERK1 kinase assay in vitro using a TR-FRET assay. Start reactions (12.5 μL) by adding 5 μL of ERK1 enzyme (Invitrogen, #PR5254B, final concentration 100 ng/mL) plus substrate GFP-ATF2 (Invitrogen, #PV4445, final concentration 0.2 μM), 5 μL of ATP solution (Invitrogen, #PV3227, final concentration 10 μM) prepared in kinase buffer (50 mM Hepes pH 7.4, 5 mM MgCl2, 0.1 mM EGTA, 0.01% Triton X-100, 1 mM DTT) and 2.5 μL of testing compounds in DMSO solution (final 4%, v/v) in a 384-well PROXIPLATE™ (Perkin Elmer, #GRN6260). Incubate the reaction mixture at room temperature for 60 minutes. Stop the reaction by addition of 12.5 μL of stop buffer (10 mM EDTA, 2 nM Tb-anti-pATF2 (pThr71) antibody, Invitrogen, #PV4448) in TR-FRET dilution buffer (Invitrogen, #PV3574). Incubate the plates at room temperature for an additional 60 minutes and read on an ENVISION® (PerkinElmer) plate reader at the excitation wavelength 340 nm Calculate the TR-FRET ratio by dividing the GFP acceptor emission signal (at 520 nm) by the Tb donor emission signal (at 495 nm). Calculate percent inhibition using compound treated wells relative to on-plate Max (DMSO control) and Min (No enzyme added) control wells TR-FRET ratio data {% inhibition=100−[(test compound−median Min)/(median Max−median Min)×100]}. […]
A general note: In TR-FRET formats the signal depends on donor and acceptor labels being close together.

The subject of test [2] is RSK1 phosphorylation in HCT116 tumor xenograft. In words: In Vivo Target Inhibition (IVTI) Assay (pRSK1 ELISA Assay). Also on record: species or system female athymic nude mice. As to conditions: oral dosing. How it is done:
The purpose of this assay is to measure the ability of a test compound to inhibit ERK1/2 substrate phosphorylation in an animal model Implant female athymic nude mice (22-25 g) from Harlan Laboratories with 5×10e^6 HCT116 colorectal cancer cells (ATCC, #CCL-247) subcutaneously in the right flank region in 200 μL of 1:1 Hank's Balanced Salt Solution (HBSS)+Matrigel solution. Measure tumor growth and body weight twice per week beginning the seventh day after the implantation. When tumor sizes reach 300-500 mm^3, randomize animals and group into groups of five animals. […]
Pulverize tumors in liquid nitrogen and lyse in 1× lysis buffer (MSD, #R60TX-3) containing 1× halt protease & phosphatase inhibitor cocktail (Thermo Scientific, #0861281), 1 mM phenylmethanesulfonyl fluoride (PMSF) (Sigma, #93482-50ML-F) and 1 μM sodium metavanadate (Sigma, #590088) using Matrix D beads (MP Biomedical, #6913-500) in a FastPrep-24™ Cell Disrupter machine (MP Biomedical) in a cold room (4° C.). […] Cool plate to room temperature and measure the absorbance at or near 562 nm on a plate reader (Envision plate reader from Perkin Elmer). Subtract the average 562 nm absorbance measurement of the blank standard replicates from the 562 nm measurements of all other individual standard and unknown (cell or tumor lysate) sample replicates. […]
In general terms: In an ELISA, binding on a coated surface is turned into a signal by an enzyme label.

pIC50: −log10 of the molar value.

T1 sequence (P27361 whole entry): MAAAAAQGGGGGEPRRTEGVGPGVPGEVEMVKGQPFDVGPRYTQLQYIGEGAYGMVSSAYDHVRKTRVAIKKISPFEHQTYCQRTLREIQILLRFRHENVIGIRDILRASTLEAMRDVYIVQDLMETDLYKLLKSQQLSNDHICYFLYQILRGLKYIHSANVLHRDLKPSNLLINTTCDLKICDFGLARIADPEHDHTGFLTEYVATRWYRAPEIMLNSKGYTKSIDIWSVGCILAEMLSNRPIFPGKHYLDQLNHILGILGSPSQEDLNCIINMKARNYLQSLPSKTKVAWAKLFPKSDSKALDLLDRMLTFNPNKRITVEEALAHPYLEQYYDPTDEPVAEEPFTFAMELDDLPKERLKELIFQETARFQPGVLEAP

The pIC50 is the IC50 on a negative log10 scale, so that one unit is a factor of ten. Low values mean a large IC50, high ones a small IC50. `Cn1nccc1Nc1nccc(-c2cc3c(s2)C(C)(C)N(CCN2CCOCC2)C3=O)n1` [Example 1, 6,6-Dimethyl-2-{2-[(1-methyl-1H-pyrazol-5-yl)amino]pyrimidin-4-yl}-5-[2-(morpholin-4-yl)ethyl]-5,6-dihydro-4H-thieno[2,3-c]pyrrol-4-one]: the pIC50 in test [1] is 8.31. Further, the “TED50, pRSK1 inhibition in tumor” value in test [2] came out at 16 mg/kg.
